This is an account of results in patent US5817690A, “4-aminoethoxy indolone derivatives” (American Home Products Corporation, priority 1997, dated 1998).

In the assay the target is T1, dopamine D-2 receptor (D2 Spiper) (Rattus norvegicus, UniProt P61169).
T1 construct: homogenized limbic brain tissue is incubated with; from tissue; host or cells: limbic brain tissue homogenate
T1 sequence (P61169 whole entry): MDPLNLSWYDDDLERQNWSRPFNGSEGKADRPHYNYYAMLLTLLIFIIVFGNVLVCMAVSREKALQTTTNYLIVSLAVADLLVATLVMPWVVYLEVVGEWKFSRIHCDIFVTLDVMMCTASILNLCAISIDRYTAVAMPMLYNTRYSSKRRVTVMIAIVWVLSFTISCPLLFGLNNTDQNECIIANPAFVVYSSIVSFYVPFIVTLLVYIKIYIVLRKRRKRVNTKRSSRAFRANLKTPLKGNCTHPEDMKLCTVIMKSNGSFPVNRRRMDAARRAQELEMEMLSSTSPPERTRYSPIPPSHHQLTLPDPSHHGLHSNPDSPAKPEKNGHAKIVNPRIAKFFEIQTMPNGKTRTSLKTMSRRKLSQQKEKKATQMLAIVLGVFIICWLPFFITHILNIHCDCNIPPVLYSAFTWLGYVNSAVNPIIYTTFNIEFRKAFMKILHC
Put plainly: 3H-spiroperidol (Spiper.) binding in homogenized limbic brain tissue, affinity for the dopamine D-2 receptor.
Procedure: High affinity for the dopamine D-2 receptor was established by the standard experimental test procedure of Fields, et al., Brain Res., 136, 578 (1977) and Yamamura et al., eds., Neurotransmitter Receptor Binding, Raven Press, New York (1978) wherein homogenized limbic brain tissue is incubated with ^3 H-spiroperidol (Spiper.) and various concentrations of test compound, filtered and washed and shaken with Hydrofluor scintillation cocktail (National Diagnostics) and counted in a Packard 460 CD scintillation counter.
As to `O=C1Cc2c(cccc2OCCNCc2ccccc2)N1` [Example 1, 4-(2-Benzylaminoethoxy)-1,3-dihydro-indol-2-one], the half-inhibitory concentration (IC50) (in general, the concentration at which inhibition is half-maximal) turned out to be 145 nM.
The same measure for `CNCCOc1cccc2c1CC(=O)N2` [Example 2, 4-(2-Methylamino-ethoxy)-1,3-dihydro-indol-2-one]: 918 nM; for `NCCOc1cccc2c1CC(=O)N2` [Example 3, 4-(2-Amino-ethoxy)-1,3-dihydro-indol-2-one]: 3420 nM.
`O=C1Cc2c(OCCNCc3ccc(F)cc3)ccc(Cl)c2N1` [Example 4] yielded a half-inhibitory concentration (IC50) of 176 nM. This IC50 lies about 19-fold lower than the previous one.
Consider `O=C1Cc2c(OCCNCc3ccc(Cl)cc3)ccc(Cl)c2N1` [Example 5], for which the 50% inhibitory concentration (IC50) turned out to be 51.9 nM.
For `Cc1ccc(CNCCOc2ccc(Cl)c3c2CC(=O)N3)cc1` [Example 6], the IC50 was 37.5 nM.
The same measure for `CN(CCOc1ccc(Cl)c2c1CC(=O)N2)Cc1ccccc1` [Example 7, 4-[2-(N-Benzyl-N-methyl-amino)-ethoxy]-7-chloro-1,3dihydro-indol-2-one]: 231 nM; for `CCCCNCCOc1ccc(Cl)c2c1CC(=O)N2` [Example 8, 4-(2-Butylamino-ethoxy)-7-chloro-1,3-dihydro-indol-2-one]: 144 nM.
To `O=C1Cc2c(OCCN3CCc4ccccc4C3)ccc(Cl)c2N1` [Example 9, 7-Chloro-4-[2-(3,4-dihydro-1H-isoguinolin-2-yl)-ethoxy]-1,3-dihydro-indol-2-one] belongs 81.4 nM; to `O=C1Cc2c(cccc2OCCNCCCCc2ccccc2)N1` [Example 13], 25 nM; to `O=C1Cc2c(OCCNCc3ccccc3)ccc(Cl)c2N1` [Example 14, 4-(2-Benzylamino-ethoxy)-7-chloro-1,3-dihydro-indol-2-one], 36 nM.
To `O=C1Cc2c(OCCNCc3ccccc3)ccc(F)c2N1` [Example 15, 4-(2-Benzylamino-ethoxy)-7-fluoro-1,3-dihydro-indol-2-one] belongs 68.7 nM.
As to `O=C1Cc2c(OCCNCC3CCCCC3)ccc(F)c2N1` [Example 16, 4-[2-(Cyclohexylmethyl-amino)-ethoxy)-7-fluoro-1,3-dihydro-indol-2one], the half-inhibitory concentration (IC50) stood at 99.4 nM.
For `CN(CCOc1cccc2c1CC(=O)N2)Cc1ccccc1` [Example 25, 4-[2-(Benzyl-methyl-amino)-ethoxy]-1,3-dihydro-indol-2-one], the 50% inhibitory concentration (IC50) stood at 645 nM.
The same measure for `CN(CCCC(=O)c1ccc(F)cc1)CCOc1cccc2c1CC(=O)N2` [Example 27, 4-(2-{[4-(4-Fluoro-phenyl)-4-oxo-butyl]-methyl-amino}-ethoxy)-1,3-dihydro-indol-2-one]: 346 nM.
